From patent US7635675B2, “Micro-particle fatty acid salt solid dosage formulations for therapeutic agents” (Biocon Limited, priority 2003, dated 2009)

Assay: USP dissolution test of fatty acid salts released from tablets and capsules
Assay type: physicochemical
Settings: tablet formulations where the fatty acids have been milled to optimum particle size (FIGS. 3-8); USP apparatus 2, 50 rpm, 500 mL pH 7.4 phosphate buffer
Procedure: The formulations of the invention preferably have a high dissolution rate. The dissolution rate can be determined as follows: Use USP dissolution apparatus 2 (paddles) at 50 rpm with 500 mL of pH 7.4 phosphate buffer.
USP 26, <711> DISSOLUTION Test Description:
This test is provided to determine compliance with the dissolution requirements where stated in the individual monograph for a tablet or capsule dosage form. Of the types of apparatus described therein, use apparatus 2. […] Where water or a medium with a pH of less than 6.8 is specified as the Medium in the individual monograph, the same Medium specified may be used with the addition of purified pepsin that results in an activity of 750,000 Units or less per 1000 mL. For media with a pH of 6.8 or greater, pancreatin can be added to produce not more than 1750 USP Units of protease activity per 1000 mL. USP Reference Standards <11> (Dissolution Calibrator, Disintegrating). (Dissolution Calibrator, nondisintegrating) are used to calibrate the equipment.
Apparatus 2: The assembly consists of the following: a covered vessel made of glass or other inert, transparent material; a motor; a metallic drive shaft; and a stirring element. The vessel is partially immersed in a suitable water bath of any convenient size or placed in a heating jacket. […]

dissolution (release) of fatty acid salt from tablet formulations | Compound
readily released | CCCCCCCCCC(=O)[O-].[Na+] [capric acid sodium salt]
readily released | CCCCCCCCCCCC(=O)[O-].[Na+] [lauric acid sodium salt]
